In patent US20250230155A1 (Vanderbilt University, priority 2021, published 2025):

Biological target: T1, human mAChR M4 (Homo sapiens, UniProt P08173)
T1 construct: expressed in transfected cells
T1 sequence (P08173 1-479): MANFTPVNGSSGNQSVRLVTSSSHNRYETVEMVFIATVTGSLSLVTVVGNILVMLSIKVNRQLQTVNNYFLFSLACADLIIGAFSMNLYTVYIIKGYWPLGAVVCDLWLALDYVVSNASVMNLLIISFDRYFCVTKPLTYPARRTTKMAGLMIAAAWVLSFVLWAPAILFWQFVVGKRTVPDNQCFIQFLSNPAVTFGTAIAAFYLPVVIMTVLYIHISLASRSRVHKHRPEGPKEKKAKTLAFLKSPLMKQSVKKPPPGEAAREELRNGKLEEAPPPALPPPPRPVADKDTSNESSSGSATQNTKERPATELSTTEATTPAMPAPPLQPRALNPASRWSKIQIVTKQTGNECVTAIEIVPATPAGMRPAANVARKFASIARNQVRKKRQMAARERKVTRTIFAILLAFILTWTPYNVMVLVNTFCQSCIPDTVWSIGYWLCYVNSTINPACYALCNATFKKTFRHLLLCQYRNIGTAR
Experiment: mAChR M4 cell-based functional assay (calcium mobilization, CHO-K1 hM4-Gqi5 cells)
Details: for EC50: positive allosteric modulator activity, increase in the EC20 acetylcholine response, CHO-K1 hM4-Gqi5 cells, read-out: Human M4 EC50; for Emax at 30 µM: CHO-K1, % ACh maximum at 30 μM, human M4
Method in brief: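 CHO-K1 cells stably expressing human M4 with chimeric Gqi5, loaded with Fluo-4 AM; compounds given as 11-point 1:3 curves and calcium flux read on FDSS at 1 Hz. Acetylcholine EC20 added at 144 s, EC80 at 230 s; agonist, PAM (EC20 potentiation) and antagonist (EC80 inhibition) EC50/Emax from four-parameter fits.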

Row | SMILES | EC50 | Emax at 30 µM | Emax (CHO-K1)
1 | Cc1cnc2c(c1)CN(c1nc(C)nc(Cl)c1C)CC2 [compound 209, 6-(6-chloro-2,5-dimethyl-pyrimidin-4-yl)-3-methyl-7,8-dihydro-5H-1,6-naphthyridine] | 170 nM |  | 95%
2 | Cc1cc(C#N)cnc1N1CCc2ncc(-n3nccc3C)cc2C1 [Example 345, 5-methyl-6-(3-(5-methyl-1H-pyrazol-1-yl)-7,8-dihydro-1,6-naphthyridin-6(5H)-yl)nicotinonitrile] | 341 nM | 86% | 
3 | Cc1cnc2c(c1)CN(c1nnc(C(=O)Nc3ccncc3)c(C)c1C)CC2 [Example 469, 4,5-dimethyl-6-(3-methyl-7,8-dihydro-1,6-naphthyridin-6(5H)-yl)-N-(pyridin-4-yl)pyridazine-3-carboxamide] | 114 nM | 98% | 
4 | Cc1cc(C(=O)NCc2cn3ccccc3n2)cnc1N1CCc2ncccc2C1 [compound 120] | 2680 nM | 64% | 
5 | Cc1c(C#N)nnc(N2CCc3ncc(Nc4ccccc4C(F)(F)F)cc3C2)c1C [compound 43, 4,5-dimethyl-6-[3-[2-(trifluoromethyl)anilino]-7,8-dihydro-5H-1,6-naphthyridin-6-yl]pyridazine-3-carbonitrile] | 1160 nM | 71% | 
6 | Cc1cc(C#N)cnc1N1CCc2ncc(N3CCCn4nccc43)cc2C1 [Example 314, 6-(3-(6,7-dihydropyrazolo[1,5-a]pyrimidin-4(5H)-yl)-7,8-dihydro-1,6-naphthyridin-6(5H)-yl)-5-methylnicotinonitrile] | 26 nM | 94% | 
7 | Cc1cc(C(=O)NCc2ccnc3ccccc23)cnc1N1CCc2ncccc2C1 [compound 131, 6-(7,8-dihydro-5H-1,6-naphthyridin-6-yl)-5-methyl-N-(4-quinolylmethyl)pyridine-3-carboxamide] | 876 nM | 57% | 
8 | Cc1cc(C(=O)N2CCc3cccnc3C2)nnc1N1CCc2ncc(C(F)(F)F)cc2C1 [Example 500, (5,8-dihydro-1,7-naphthyridin-7(6H)-yl)(5-methyl-6-(3-(trifluoromethyl)-7,8-dihydro-1,6-naphthyridin-6(5H)-yl)pyridazin-3-yl)methanone] | 1790 nM | 92% | 
9 | Cc1cncc(-c2cnc3c(c2)CN(c2nnc(C#N)c(C)c2C)CC3)c1 [Example 435, 4,5-dimethyl-6-(3-(5-methylpyridin-3-yl)-7,8-dihydro-1,6-naphthyridin-6(5H)-yl)pyridazine-3-carbonitrile] | 914 nM | 61% | 
10 | Cc1ccc(Oc2cnc3c(c2)CN(c2ncc(C#N)cc2C)CC3)c(F)c1 [Example 349, 6-(3-(2-fluoro-4-methylphenoxy)-7,8-dihydro-1,6-naphthyridin-6(5H)-yl)-5-methylnicotinonitrile] | 1120 nM | 72% | 
11 | Cc1cc(C#N)nnc1N1CCc2ncc(N3CCCn4nc(C(C)(C)C)cc43)cc2C1 [Example 418, 6-(3-(2-(tert-butyl)-6,7-dihydropyrazolo[1,5-a]pyrimidin-4(5H)-yl)-7,8-dihydro-1,6-naphthyridin-6(5H)-yl)-5-methylpyridazine-3-carbonitrile] | 516 nM | 80% | 
12 | Cc1cc(C(=O)NCc2nc3ccccc3s2)cnc1N1CCc2ncccc2C1 [compound 125, N-(1,3-benzothiazol-2-ylmethyl)-6-(7,8-dihydro-5H-1,6-naphthyridin-6-yl)-5-methyl-pyridine-3-carboxamide] | 856 nM | 78% | 
13 | Cc1cc(C#N)cnc1N1CCc2ncc(N3CCOC(c4ccccn4)C3)cc2C1 (centres unmarked) [Example 387, 5-methyl-6-(3-(2-(pyridin-2-yl)morpholino)-7,8-dihydro-1,6-naphthyridin-6(5H)-yl)nicotinonitrile] | 861 nM | 71% | 
14 | Cc1cc(C(=O)N2CC(F)C2)nnc1N1CCc2ncc(-c3ccnn3C)cc2C1 [Example 563, (3-fluoroazetidin-1-yl)(5-methyl-6-(3-(1-methyl-1H-pyrazol-5-yl)-7,8-dihydro-1,6-naphthyridin-6(5H)-yl)pyridazin-3-yl)methanone] | 74 nM | 69% | 

More lines, main results first:

Row | EC50 | Emax at 30 µM | SMILES | Emax (CHO-K1)
15 | 164 nM | 91% | Cc1cc(C#N)cnc1N1CCc2ncc(Oc3ccc4c(cnn4C)c3)cc2C1 [compound 183, 5-methyl-6-[3-(1-methylindazol-5-yl)oxy-7,8-dihydro-5H-1,6-naphthyridin-6-yl]pyridine-3-carbonitrile] | 
16 | 518 nM | 82% | Cc1nc(Cl)c(C)c(N2CCc3ncc(-c4ccc(N(C)C)nc4)cc3C2)n1 [compound 220, 5-(6-(6-chloro-2,5-dimethylpyrimidin-4-yl)-5,6,7,8-tetrahydro-1,6-naphthyridin-3-yl)-N,N-dimethylpyridin-2-amine] | 
17 | 292 nM | 83% | Cc1nc(C)c(-c2cnc3c(c2)CN(c2nnc(C#N)c(C)c2C)CC3)s1 [compound 294, 6-(3-(2,4-dimethylthiazol-5-yl)-7,8-dihydro-1,6-naphthyridin-6(5H)-yl)-4,5-dimethylpyridazine-3-carbonitrile] | 
18 | 611 nM | 80% | Cc1nc(Cl)c(C)c(N2CCc3ncc(-c4cnn(C5CCC5)c4)cc3C2)n1 [compound 195, 6-(6-chloro-2,5-dimethyl-pyrimidin-4-yl)-3-(1-cyclobutylpyrazol-4-yl)-7,8-dihydro-5H-1,6-naphthyridine] | 
19 | ≥ 10000 nM | 54% | Cc1cc(C(=O)NCc2ccc3c(c2)CCS3(=O)=O)cnc1N1CCc2ncccc2C1 [compound 164, 6-(7,8-dihydro-5H-1,6-naphthyridin-6-yl)-N-[(1,1-dioxo-2,3-dihydrobenzothiophen-5-yl)methyl]-5-methyl-pyridine-3-carboxamide] | 
20 | 188 nM | 89% | Cc1cc(C(=O)NCc2ccncc2)cnc1N1CCc2ncc(-c3cnn(C)c3)cc2C1 [compound 176, 5-methyl-6-[3-(1-methylpyrazol-4-yl)-7,8-dihydro-5H-1,6-naphthyridin-6-yl]-N-(4-pyridylmethyl)pyridine-3-carboxamide] | 
21 | 368 nM |  | Clc1nc2c(c(N3CCc4ncc(N5CCOc6ncccc65)cc4C3)n1)COC2 [compound 283, 1-(6-(2-chloro-5,7-dihydrofuro[3,4-d]pyrimidin-4-yl)-5,6,7,8-tetrahydro-1,6-naphthyridin-3-yl)-2,3-dihydro-1H-pyrido[2,3-b][1,4]oxazine] | 
22 | 136 nM | 105% | Cc1c(C(=O)NCc2ccncc2)nnc(N2CCc3ncc(Nc4ccccc4F)cc3C2)c1C [compound 190, 6-[3-(2-fluoroanilino)-7,8-dihydro-5H-1,6-naphthyridin-6-yl]-4,5-dimethyl-N-(4-pyridylmethyl)pyridazine-3-carboxamide] | 
23 | 96.9 nM | 94% | Cc1cc(C#N)cnc1N1CCc2ncc(Oc3ccccc3F)cc2C1 [compound 180, 6-[3-(2-fluorophenoxy)-7,8-dihydro-5H-1,6-naphthyridin-6-yl]-5-methyl-pyridine-3-carbonitrile] | 
24 | 439 nM | 75% | COc1ccc(Oc2cnc3c(c2)CN(c2ncc(C#N)cc2C)CC3)cn1 [compound 182, 6-[3-[(6-methoxy-3-pyridyl)oxy]-7,8-dihydro-5H-1,6-naphthyridin-6-yl]-5-methyl-pyridine-3-carbonitrile] | 
